Experimental data reported in paper PMC2654417 (Combinatorial chemistry & high throughput screening, 2008).
Read-outs that look alike come from different tables or passages of the source.

Legend:
[1] = molecular target: T1, glucocorticoid receptor (GR) (Homo sapiens, UniProt P04150); assay: GR-EFC nuclear translocation assay; assay type: cell-based; settings: for qHTS Hill Slope: Hill slope of the qHTS curve fit; for log qEC50: log10 of qEC50 in M, printed as negative values; for qHTS Max Activity: maximal activity of the qHTS curve, inactive threshold […] (3σ)
T1 sequence (P04150 1-777): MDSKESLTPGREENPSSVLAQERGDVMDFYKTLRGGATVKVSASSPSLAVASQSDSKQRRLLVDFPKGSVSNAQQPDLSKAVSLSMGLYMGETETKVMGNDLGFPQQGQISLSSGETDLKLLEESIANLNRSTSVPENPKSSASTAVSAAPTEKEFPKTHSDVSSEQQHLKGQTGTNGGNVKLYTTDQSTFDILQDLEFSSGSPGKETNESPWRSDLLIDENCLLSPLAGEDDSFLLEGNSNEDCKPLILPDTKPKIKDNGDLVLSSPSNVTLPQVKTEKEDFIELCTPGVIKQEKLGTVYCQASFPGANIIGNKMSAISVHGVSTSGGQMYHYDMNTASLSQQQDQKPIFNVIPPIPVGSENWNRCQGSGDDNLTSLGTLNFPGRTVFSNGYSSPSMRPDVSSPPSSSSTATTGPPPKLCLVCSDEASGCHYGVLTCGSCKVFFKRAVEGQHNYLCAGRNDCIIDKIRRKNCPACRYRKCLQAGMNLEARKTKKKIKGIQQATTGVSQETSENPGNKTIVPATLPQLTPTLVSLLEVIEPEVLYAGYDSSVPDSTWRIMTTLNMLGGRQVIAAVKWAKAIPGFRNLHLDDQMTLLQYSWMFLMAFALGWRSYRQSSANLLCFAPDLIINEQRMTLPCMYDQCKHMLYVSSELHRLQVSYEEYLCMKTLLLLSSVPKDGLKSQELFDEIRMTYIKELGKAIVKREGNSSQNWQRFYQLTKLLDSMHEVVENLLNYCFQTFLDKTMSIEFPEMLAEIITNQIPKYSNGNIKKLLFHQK

[2] = molecular target: T1, glucocorticoid receptor (GR); settings: GR-rich cell extract; cited from earlier work
[3] = read-out: qEC50, qHTS curve fit, class 4 values are fit defaults
[4] = class 4 values are fit defaults

C[C@H]1CC[C@@]2(NC1)O[C@@H]1C[C@H]3[C@@H]4CC=C5C[C@@H](O)CC[C@]5(C)[C@@H]4CC[C@]3(C)[C@@H]1[C@@H]2C [NCGC00016381-01]
EC50 [1, 3]: > 9 µM

CC[C@H](CC[C@H](C)[C@@H]1CC[C@@H]2[C@H]3CC=C4C[C@@H](O)CC[C@]4(C)[C@H]3CC[C@]21C)C(C)C [NCGC00016331-01]
EC50 [1, 3]: > 9 µM

CC(=O)OCC(=O)[C@@]1(OC(C)=O)[C@H](C)C[C@H]2[C@@H]3C[C@H](F)C4=CC(=O)C=C[C@@]4(C)[C@]3(F)[C@H](O)C[C@@]21C [NCGC00016822-01]
qHTS Hill Slope [1]: 0.44 | log qEC50 [1, 4]: −7.111 | qHTS Max Activity [1]: 80.7 | EC50 [1, 3]: 0.0775 µM

CC(=O)[C@@H]1CC[C@H]2[C@H]3CC[C@H]4C[C@@H](O)CC[C@]4(C)[C@@H]3CC[C@]12C [NCGC00015853-01]
EC50 [1, 3]: > 9 µM

C[C@]12C[C@H](O)[C@H]3[C@@H](CCC4=CC(=O)CC[C@@]43C)[C@@H]1CC[C@@H]2C(=O)CO [Corticosterone, reference compound]
EC50 [1]: 0.036 µM | IC50/Kd [3H]dex binding assay [2]: 0.048 [39] μM

C[C@]12C[C@H]3S[C@H]3C[C@@H]1CC[C@@H]1[C@@H]2CC[C@]2(C)[C@@H](O)CC[C@@H]12 [NCGC00016609-01]
qHTS Curve Class [1]: 4 (inactive, where activity was below 28.6% (3σ for the present assay)) | EC50 ([1]; read-out: qEC50): > 9 µM

C[C@@]12CC[C@@H]3c4ccc(OS(=O)(=O)O)cc4CC[C@H]3[C@H]1CCC2=O [NCGC00016682-01]
EC50 [1, 3]: > 9 µM

CC(=O)O[C@@H]1C[C@]2(C)[C@H](C[C@@H](O)[C@H]3[C@@]4(C)CC[C@@H](O)[C@@H](C)[C@@H]4CC[C@@]32C)/C1=C(\CCC=C(C)C)C(=O)[O-].[Na+] [NCGC00016148-01]
qHTS Curve Class [1]: 4 (inactive, where activity was below 28.6% (3σ for the present assay)) | EC50 ([1]; read-out: qEC50): > 9 µM

CC(=O)C1(O)CCC2C3CCC4=CC(=O)CCC4(C)C3CCC21C (stereo not drawn) [17α-hydroxyprogesterone, reference compound]
EC50 [1]: 2.87 µM

CC(C)CCC(=O)O.C[C@@]12CCC(=O)C[C@@H]1CC(=O)[C@H]1[C@H]3CCC[C@]3(C)C(=O)C[C@@H]12 [NCGC00017016-01]
qHTS Curve Class [1]: 4 (inactive, where activity was below 28.6% (3σ for the present assay)) | EC50 ([1]; read-out: qEC50): > 9 µM

C[C@@H]1O[C@@H](O[C@@H]2C=C3CC[C@@H]4[C@H](CC[C@]5(C)[C@@H](c6ccc(=O)oc6)CC[C@]45O)[C@@]3(C)CC2)[C@H](O)[C@H](O)[C@H]1O [NCGC00016447-01]
qHTS Curve Class [1]: 4 (inactive, where activity was below 28.6% (3σ for the present assay)) | EC50 ([1]; read-out: qEC50): > 9 µM

CC(=O)OCC(=O)[C@@]1(O)CC[C@H]2[C@@H]3CCC4=CC(=O)C=C[C@]4(C)[C@@]3(F)[C@@H](O)C[C@@]21C [NCGC00016433-01]
qHTS Hill Slope [1]: 0.52 | log qEC50 [1, 4]: −7.456 | qHTS Max Activity [1]: 80.8 | EC50 [1, 3]: 0.035 µM

C#C[C@]1(O)CC[C@H]2[C@@H]3CCC4=CCCC[C@@H]4[C@H]3CC[C@@]21C [NCGC00016233-01]
qHTS Curve Class [1]: 4 (inactive, where activity was below 28.6% (3σ for the present assay)) | EC50 ([1]; read-out: qEC50): > 9 µM

C[C@H](CCC(=O)O)[C@H]1CC[C@@H]2[C@H]3CC[C@H]4C[C@@H](O)CC[C@@]4(C)[C@H]3CC[C@]21C [NCGC00016445-01]
EC50 [1, 3]: > 9 µM

C[C@H]1[C@H](C)CC[C@@]2(C(=O)O)CC[C@]3(C)C(=CC[C@H]4[C@@]5(C)C[C@@H](O)[C@H](O)[C@@](C)(CO)[C@@H]5CC[C@@]43C)[C@@H]12 [NCGC00017359-01]
qHTS Curve Class [1]: 4 (inactive, where activity was below 28.6% (3σ for the present assay)) | EC50 ([1]; read-out: qEC50): > 9 µM

C[C@]12CC[C@H](O)C[C@@H]1CC[C@H]1[C@H]2CC[C@]2(C)[C@H](C(=O)CO)CC[C@@H]12 [NCGC00015805-01]
EC50 [1, 3]: > 9 µM

C[C@@H]1O[C@H](O[C@@H]2CC[C@@]3(C=O)[C@H]4CC[C@@]5(C)[C@@H](C6=CC(=O)OC6)CC[C@@]5(O)[C@@H]4CC[C@]3(O)C2)C[C@H](O)[C@@H]1O [NCGC00016524-01]
EC50 [1, 3]: > 9 µM

C[C@]12CC[C@@H]3C(=CCc4cc(O)ccc43)[C@@H]1CCC2=O [NCGC00016451-01]
qHTS Curve Class [1]: 4 (inactive, where activity was below 28.6% (3σ for the present assay)) | EC50 ([1]; read-out: qEC50): > 9 µM

C[C@@]12C[C@@H](O)[C@H]3[C@@H](CCC4=CC(=O)CC[C@]43C)[C@H]1CC[C@H]2C(=O)CO [NCGC00016214-01]
qHTS Hill Slope [1]: 1.35 | log qEC50 [1, 4]: −7.782 | qHTS Max Activity [1]: 37.8 | EC50 [1, 3]: 0.0165 µM
